# Assays:
# [1] = tested on: Corn Earworm (Helicoverpa zea); assay: Insecticidal diet-surface test for corn earworm; format: in vivo; settings: 120 h, second-instar larvae on treated diet, 50 μg/cm^2 on diet surface, 5 days after treatment, 8 insects per treatment, read-out: HELIZE AVG % Mortality (50 μg/cm^2)
# Method in brief: (§1)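 Second-instar larvae placed on lepidopteran diet surface-treated with 50 μL of 2000 ppm compound in 9 acetone:1 water (stated as 50 μg/cm^2), eight wells per species. Held 5 days at 25° C, 50-55% RH, 16:8 h light:dark; mortality of 8 larvae scored as percent control.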
# [2] = tested on: Beet Armyworm (Spodoptera exigua); assay: Insecticidal diet-surface test for beet armyworm; format: in vivo; settings: 120 h, second-instar larvae on treated diet, 50 μg/cm^2 on diet surface, 5 days after treatment, 8 insects per treatment, read-out: LAPHEG AVG % Mortality (50 μg/cm^2)
# Method in brief: as §1
Compound,mortality at 50 µg/cm2 [1],mortality at 50 µg/cm2 [2]
Cc1c(OCC(F)(F)F)nc(NC(=O)N(C)c2ccc(OC(F)(F)F)cc2)nc1OCC(F)(F)F [Compound 142],100%,100%
Cc1c(OCC(F)(F)F)nc(NC(=O)Nc2ccc(C(F)(F)F)nc2)nc1OCC(F)(F)F [Compound 143],100%,100%
O=C(Nc1ccc(C(F)(F)F)cc1)Nc1nc(OCC(F)(F)F)c(Cl)c(OCC(F)(F)F)n1 [Compound 145],0%,100%
O=C(Nc1ccc(Br)nc1)Nc1nc(OCC(F)(F)F)c(Cl)c(OCC(F)(F)F)n1 [Compound 146],100%,100%
Cc1c(OCC(F)(F)F)nc(NC(=O)Nc2ccc(C(F)(F)F)cc2)nc1OCC(F)(F)F [Compound 147],100%,88%
CN(C(=O)Nc1nc(OCC(F)(F)F)cc(OCC(F)(F)F)n1)c1ccc(Cl)cc1Cl [Compound 149],100%,100%
CN(C(=O)Nc1nc(OCC(F)(F)F)cc(OCC(F)(F)F)n1)c1ccc(F)cc1F [Compound 150],75%,100%
O=C(Nc1ccc(C(F)(F)C(F)(F)F)cc1)Nc1nc(OCC(F)(F)F)cc(OCC(F)(F)F)n1 [Compound 151],100%,100%
CN(C(=O)Nc1nc(OCC(F)(F)F)cc(OCC(F)(F)F)n1)c1ccc(C(F)(F)C(F)(F)F)cc1 [Compound 152],100%,100%
CN(C(=O)Nc1nc(OCC(F)(F)F)cc(OCC(F)(F)F)n1)c1ccc(C(F)(F)F)c(Cl)c1 [Compound 153],100%,100%
CN(C(=O)Nc1nc(OCC(F)(F)F)cc(OCC(F)(F)F)n1)c1ccc(C(F)(F)F)c(F)c1 [Compound 154],100%,100%
CN(C(=O)Nc1nc(OCC(F)(F)F)cc(OCC(F)(F)F)n1)c1ccc(Br)cc1C(F)(F)F [Compound 155],100%,50%
O=C(Nc1nc(OCC(F)(F)F)cc(OCC(F)(F)F)n1)N(c1ccc(C(F)(F)F)cc1)C1CC1 [Compound 156],100%,100%
CCc1cc(Br)ccc1N(C)C(=O)Nc1nc(OCC(F)(F)F)cc(OCC(F)(F)F)n1 [Compound 157],100%,100%
Cc1cc(Br)ccc1N(C)C(=O)Nc1nc(OCC(F)(F)F)cc(OCC(F)(F)F)n1 [Compound 158],100%,100%
CN(C(=O)Nc1nc(OCC(F)(F)F)cc(OCC(F)(F)F)n1)c1c(F)cccc1F [Compound 159],0%,100%
CN(C(=O)Nc1nc(OCC(F)(F)F)cc(OCC(F)(F)F)n1)c1ccc(C(F)(F)F)cc1Cl [Compound 160],100%,100%
CN(C(=O)Nc1nc(OCC(F)(F)F)cc(OCC(F)(F)F)n1)c1ccc(C(F)(F)F)cc1F [Compound 161],100%,100%
CN(C(=O)Nc1cc(C(F)(F)F)cc(OCC(F)(F)F)n1)c1ccc(C(F)(F)F)cc1 [Compound 162],100%,100%
O=C(Nc1ccc(OC(F)(F)F)cc1)Nc1cc(C(F)(F)F)cc(OCC(F)(F)F)n1 [Compound 163],100%,100%
O=C(Nc1ccc(C(F)(F)F)cc1)Nc1cc(C(F)(F)F)cc(OCC(F)(F)F)n1 [Compound 164],100%,88%
O=C(Nc1ccc(Br)cc1)Nc1cc(C(F)(F)F)cc(OCC(F)(F)F)n1 [Compound 166],100%,100%
CN(C(=O)Nc1cc(C(F)(F)F)cc(OCC(F)(F)F)n1)c1ccc(Br)cc1 [Compound 167],100%,50%

# — US8455649B2, “Insecticidal substituted azinyl derivatives” (Dow AgroSciences, LLC, priority 2007, dated 2013)
